Results reported in US20140271742A1, “SKIN TANNING USING PEPTIDES AND OTHER COMPOSITIONS” (priority 2013, published 2014).

Legend:
[1] = Laser Doppler circulation in five human subjects, NO creams and controls (Example 8); assay type: in vivo; settings: positive control formulation containing 0.1% methyl nicotinate
From the text: This example illustrates delivery of nitric oxide formulations to five human subjects, using procedures and formulations similar to those discussed in Example 5. Each person served as their own control for the testing. A Moor Instruments Laser Doppler was used to determine circulation. […] The formulations used produce positive, almost immediate results when applied to the skin which, in these studies, was manifested by vasodilatation of the cutaneous vascular system.
For each subject, the following creams were applied: a negative control formulation (containing no NO), 0.010 gram of a 10,000 ppm NO formulation, 0.020 gram of a 10,000 ppm NO formulation, and a positive control formulation containing 0.1% methyl nicotinate. The formulations were prepared using procedures similar to those discussed in Example 1.

[2] = Laser Doppler capillary blood flow in humans, 10,000 ppm NO in closed Hilltop chamber (Example 5); assay type: in vivo, human; settings: applied to the skin at 1/10% in alcohol
From the text: The formulation used in these studies contained nitric oxide dispersed in a lipid matrix. […] Nitric oxide is a very rapid acting molecule, and these studies used a system that employed laser Doppler with a covered chamber. The formulation was placed into the chamber and then attached to the skin by an adhesive layer on the covering. This provided a stable measuring device as determined by multiple normal evaluations of the capillary blood flow without treatment of nitric oxide.
A known positive control, methyl nicotinate, was applied to the skin at a concentration of 1/10% in alcohol. […] The vascular dynamics are such that when the blood vessels dilate physical parameters follow Bernoulli's law. This states that as one increases the diameter of a tube containing a liquid to flow will increase but the pressure and the speed of the liquid will decrease. The laser Doppler device accurately measured these parameters.
The test product was labeled as 10,000 ppm NO (nitric oxide). The study participants had 100 mg of the test product applied in a closed Hilltop chamber on the forearm. […]
A Moor Instruments DRT4 Laser Doppler Blood Flow Monitor (Devon, England) was used in these studies. The laser Doppler technique measured blood flow in the microcapillaries of the skin that are close to the skin surface and the blood flow in underlying arterioles and venules that help to regulate skin temperature. […]

COC(=O)c1cccnc1 [methyl nicotinate]
Vasodilatation (laser Doppler) [1]: vasodilatation was observed | Laser Doppler response of positive control [2]: rapid response typical of the vasodilator
